From ChEMBL document CHEMBL5649166, “RIP3 induces apoptosis independent of pronecrotic kinase activity” (Mol Cell, 2014)

What was measured:
[1] = molecular target: Dual specificity protein kinase CLK4 (Homo sapiens) (UniProt Q9HAZ1); assay: Inhibition of human CLK4 using myelin basic protein as substrate at 1 uM in presence of 32P-ATP by Hotspot assay relative to control; values are per cent of control
[2] = molecular target: Tyrosine-protein kinase Yes (Homo sapiens) (UniProt P07947); assay: Inhibition of human YES/YES1 using poly[Glu:Tyr] (4:1) as substrate at 1 uM in presence of 32P-ATP by Hotspot assay relative to control; values are per cent of control
Chain of Tyrosine-protein kinase Yes (Homo sapiens) (P07947 2-543 limits assumed): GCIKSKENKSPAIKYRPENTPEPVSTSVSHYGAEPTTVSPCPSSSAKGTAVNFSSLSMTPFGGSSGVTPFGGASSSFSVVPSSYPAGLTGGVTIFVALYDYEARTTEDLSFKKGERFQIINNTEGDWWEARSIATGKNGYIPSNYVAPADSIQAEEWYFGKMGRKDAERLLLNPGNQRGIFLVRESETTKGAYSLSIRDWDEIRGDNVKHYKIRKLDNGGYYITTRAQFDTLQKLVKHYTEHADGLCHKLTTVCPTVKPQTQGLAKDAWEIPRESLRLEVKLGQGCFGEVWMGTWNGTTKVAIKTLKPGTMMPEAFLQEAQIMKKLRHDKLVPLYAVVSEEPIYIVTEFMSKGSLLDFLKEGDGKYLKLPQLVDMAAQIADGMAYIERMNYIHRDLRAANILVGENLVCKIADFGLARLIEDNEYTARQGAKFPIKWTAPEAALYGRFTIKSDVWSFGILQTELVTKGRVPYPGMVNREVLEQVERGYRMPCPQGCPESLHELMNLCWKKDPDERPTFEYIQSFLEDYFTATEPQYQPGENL

[3] = molecular target: T1, Serine/threonine-protein kinase D1 (Homo sapiens) (UniProt Q15139); assay: Residual activity of human PKCmu/PRKD1 using KKLNRTLSVA as substrate at 1 uM in presence of 32P-ATP by Hotspot assay relative to control
T1 sequence (whole entry): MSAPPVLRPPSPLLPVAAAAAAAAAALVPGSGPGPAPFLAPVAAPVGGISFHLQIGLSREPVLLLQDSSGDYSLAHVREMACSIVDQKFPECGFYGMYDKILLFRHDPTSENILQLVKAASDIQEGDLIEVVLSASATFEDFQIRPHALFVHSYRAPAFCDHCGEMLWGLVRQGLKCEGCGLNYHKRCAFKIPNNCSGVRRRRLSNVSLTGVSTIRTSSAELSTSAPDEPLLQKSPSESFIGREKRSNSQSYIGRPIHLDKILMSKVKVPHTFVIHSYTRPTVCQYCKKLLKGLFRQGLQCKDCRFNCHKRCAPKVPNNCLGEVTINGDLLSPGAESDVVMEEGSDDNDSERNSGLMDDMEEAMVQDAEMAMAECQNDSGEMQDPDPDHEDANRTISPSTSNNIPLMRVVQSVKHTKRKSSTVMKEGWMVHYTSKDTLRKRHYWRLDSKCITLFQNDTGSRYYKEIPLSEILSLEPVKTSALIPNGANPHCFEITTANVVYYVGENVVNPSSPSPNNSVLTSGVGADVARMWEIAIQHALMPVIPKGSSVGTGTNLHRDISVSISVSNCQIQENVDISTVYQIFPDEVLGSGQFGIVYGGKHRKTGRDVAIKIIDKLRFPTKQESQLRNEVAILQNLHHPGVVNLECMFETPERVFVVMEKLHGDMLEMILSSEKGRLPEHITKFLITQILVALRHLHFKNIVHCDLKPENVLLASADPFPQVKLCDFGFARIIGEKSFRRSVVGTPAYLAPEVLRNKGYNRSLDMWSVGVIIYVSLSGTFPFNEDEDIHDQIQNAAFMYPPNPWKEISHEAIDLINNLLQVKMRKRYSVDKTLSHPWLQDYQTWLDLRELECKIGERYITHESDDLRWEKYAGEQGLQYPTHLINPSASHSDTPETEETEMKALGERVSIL

[4] = molecular target: Mitogen-activated protein kinase 8 (Homo sapiens) (UniProt P45983); assay: Inhibition of human JNK1 using ATF2 as substrate at 1 uM in presence of 32P-ATP by Hotspot assay relative to control; values are per cent of control
Chain of Mitogen-activated protein kinase 8 (Homo sapiens) (P45983 whole entry): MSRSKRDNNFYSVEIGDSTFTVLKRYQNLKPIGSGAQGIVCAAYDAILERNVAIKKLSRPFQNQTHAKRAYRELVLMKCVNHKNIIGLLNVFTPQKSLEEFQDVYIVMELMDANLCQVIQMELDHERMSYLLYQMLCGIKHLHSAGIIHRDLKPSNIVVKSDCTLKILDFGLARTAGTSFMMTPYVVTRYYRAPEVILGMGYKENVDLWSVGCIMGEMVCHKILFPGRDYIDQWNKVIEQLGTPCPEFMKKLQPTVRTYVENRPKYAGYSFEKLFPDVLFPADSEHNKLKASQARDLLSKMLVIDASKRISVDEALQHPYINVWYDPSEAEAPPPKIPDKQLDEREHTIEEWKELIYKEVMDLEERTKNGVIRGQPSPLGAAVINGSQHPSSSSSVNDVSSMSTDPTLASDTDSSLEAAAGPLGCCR

[5] = molecular target: T2, Serine/threonine-protein kinase TAO3 (Homo sapiens) (UniProt Q9H2K8); assay: Inhibition of human TAOK3/JIK using myelin basic protein as substrate at 1 uM in presence of 32P-ATP by Hotspot assay relative to control; values are per cent of control
T2 sequence (whole entry): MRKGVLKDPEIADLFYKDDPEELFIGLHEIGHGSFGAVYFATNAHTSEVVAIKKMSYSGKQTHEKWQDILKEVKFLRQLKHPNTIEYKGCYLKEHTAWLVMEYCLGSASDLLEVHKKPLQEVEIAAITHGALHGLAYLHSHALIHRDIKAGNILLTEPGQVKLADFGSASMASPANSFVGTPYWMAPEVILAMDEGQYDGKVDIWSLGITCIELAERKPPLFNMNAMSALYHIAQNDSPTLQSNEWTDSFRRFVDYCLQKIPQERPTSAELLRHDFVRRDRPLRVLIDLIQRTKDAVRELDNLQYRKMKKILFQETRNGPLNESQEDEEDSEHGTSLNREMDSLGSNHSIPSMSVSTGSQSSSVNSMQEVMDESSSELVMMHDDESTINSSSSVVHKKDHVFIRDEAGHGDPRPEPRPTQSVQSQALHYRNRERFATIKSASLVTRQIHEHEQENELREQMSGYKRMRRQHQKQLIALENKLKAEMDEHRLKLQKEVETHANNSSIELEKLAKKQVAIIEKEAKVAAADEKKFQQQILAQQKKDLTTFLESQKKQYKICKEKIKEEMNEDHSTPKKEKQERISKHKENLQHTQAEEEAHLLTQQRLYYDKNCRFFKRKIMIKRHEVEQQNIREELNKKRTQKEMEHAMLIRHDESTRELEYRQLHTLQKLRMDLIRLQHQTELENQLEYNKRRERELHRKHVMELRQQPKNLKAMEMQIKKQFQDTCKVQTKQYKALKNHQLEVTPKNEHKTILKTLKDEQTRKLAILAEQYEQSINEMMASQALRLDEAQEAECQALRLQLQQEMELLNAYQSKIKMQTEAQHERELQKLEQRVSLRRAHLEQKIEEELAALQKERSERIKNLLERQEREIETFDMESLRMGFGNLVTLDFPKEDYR

[6] = molecular target: T3, Protein kinase C zeta type (Homo sapiens) (UniProt Q05513); assay: Inhibition of human PKCzeta using ERMRPRKRQGSVRRRV as substrate at 1 uM in presence of 32P-ATP by Hotspot assay relative to control; values are per cent of control
T3 sequence (whole entry): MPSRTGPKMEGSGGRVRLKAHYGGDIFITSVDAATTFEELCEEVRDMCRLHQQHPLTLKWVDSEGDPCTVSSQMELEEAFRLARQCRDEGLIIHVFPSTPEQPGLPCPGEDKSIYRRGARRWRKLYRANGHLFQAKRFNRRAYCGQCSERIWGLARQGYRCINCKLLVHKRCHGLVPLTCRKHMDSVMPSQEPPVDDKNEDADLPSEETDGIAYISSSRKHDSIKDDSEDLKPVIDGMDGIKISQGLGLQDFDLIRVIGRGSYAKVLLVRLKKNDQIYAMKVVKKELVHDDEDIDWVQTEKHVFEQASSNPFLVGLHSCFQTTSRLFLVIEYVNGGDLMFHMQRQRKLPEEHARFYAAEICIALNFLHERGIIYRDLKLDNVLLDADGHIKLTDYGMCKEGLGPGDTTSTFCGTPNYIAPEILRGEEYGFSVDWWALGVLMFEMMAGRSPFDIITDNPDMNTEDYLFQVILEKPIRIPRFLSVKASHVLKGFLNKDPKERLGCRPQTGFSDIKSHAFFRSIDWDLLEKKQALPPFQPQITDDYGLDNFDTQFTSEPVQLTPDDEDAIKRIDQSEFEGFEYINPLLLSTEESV

Chain of Dual specificity protein kinase CLK4 (Homo sapiens) (Q9HAZ1 whole entry, looked up): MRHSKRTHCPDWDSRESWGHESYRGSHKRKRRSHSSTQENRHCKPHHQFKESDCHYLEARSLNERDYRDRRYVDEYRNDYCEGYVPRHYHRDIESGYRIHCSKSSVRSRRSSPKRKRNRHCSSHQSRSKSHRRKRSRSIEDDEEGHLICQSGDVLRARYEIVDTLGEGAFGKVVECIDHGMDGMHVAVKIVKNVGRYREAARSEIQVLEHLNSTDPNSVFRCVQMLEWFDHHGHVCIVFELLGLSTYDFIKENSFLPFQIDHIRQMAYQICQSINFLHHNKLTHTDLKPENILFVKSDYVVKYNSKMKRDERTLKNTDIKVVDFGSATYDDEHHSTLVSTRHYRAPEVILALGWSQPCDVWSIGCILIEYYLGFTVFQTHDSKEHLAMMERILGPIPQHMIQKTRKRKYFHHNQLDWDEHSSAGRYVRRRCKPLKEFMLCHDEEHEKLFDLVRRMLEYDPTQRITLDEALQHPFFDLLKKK

SMILES: CNC(=O)c1ccc2c(c1)ncn2-c1ccc(CC(=O)OC(C)(C)C)cc1
- residual activity [1]: 93.8%
- residual activity [2]: 39.6%
- residual activity [3]: 99.5%
- residual activity [4]: 103%
- residual activity [5]: 95.2%
- residual activity [6]: 96.4%

SMILES: Cc1cc(-c2cnc(N)c3c(-c4ccc5scnc5c4)csc23)n(C)n1
- residual activity [1]: 84.6%
- residual activity [2]: 17%
- residual activity [3]: 51.6%
- residual activity [4]: 91.6%
- residual activity [5]: 99.4%
- residual activity [6]: 101%

SMILES: CC(C)S(=O)(=O)c1ccc2nccc(Nc3ccc4scnc4c3)c2c1
- residual activity [1]: 92.2%
- residual activity [2]: 20.1%
- residual activity [3]: 98.9%
- residual activity [4]: 96.8%
- residual activity [5]: 96.4%
- residual activity [6]: 96.3%
